Assay results taken from US11207312B2, “Metallo-beta-lactamase inhibitors and methods of use thereof” (priority 2017, dated 2021).
Read-outs that look alike come from different tables or passages of the source.

What was measured:
NDM-1 = NDM-1 (Klebsiella pneumoniae, UniProt C7C422); experiment: biochemical; format: biochemical; conditions: CCF2-FA fluorescence assay, 2 hours at 25° C.
Outline: (§1)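 Enzyme (NDM-1 1 pM, IMP-1 2 pM, VIM-1 30 pM final) and 1.25 μM CCF2-FA incubated with inhibitor (20 to 0.00063 μM) for 2 h at 25° C in 100 mM KH2PO4 pH 7, 0.005% Tween-20, 10 μM ZnSO4. Fluorescence read at ex 405/em 460 nm; IC50 by 4-parameter fit.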

IMP-1 = IMP-1 (Serratia marcescens, UniProt P52699); experiment: biochemical; conditions: CCF2-FA fluorescence assay, 2 hours at 25° C.; read-out: IMP1 IC50
Outline: as §1

VIM-1 = VIM-1 (Pseudomonas aeruginosa (strain ATCC 15692 / DSM 22644 / CIP 104116 / JCM 14847 / LMG 12228 / 1C / PRS 101 / PAO1), UniProt A0A0F7KYQ8); experiment: biochemical; conditions: CCF2-FA fluorescence assay, 2 hours at 25° C.; read-out: VIM1 IC50
Outline: as §1

VIM-2 = VIM-2 (Escherichia coli, UniProt Q5U7L7); experiment: biochemical
[1] = test system: Escherichia coli expressing NDM-1 (CLB30016); format: cell-based; conditions: with imipenem 1 μg/ml; 95% inhibition of bacterial growth
Outline: (§2)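 Each strain, diluted 1:100 from saline suspension into 1.1× CAMHB, was combined with imipenem held at 1 μg/ml and graded inhibitor. Growth after 22–24 h at 35 °C was measured by absorbance, and the lowest concentration achieving 95% inhibition defined MITC95.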

[2] = test system: Klebsiella pneumoniae expressing VIM-1 (IHMA599644); format: cell-based; conditions: with imipenem 1 μg/ml; 95% inhibition of bacterial growth
Outline: as §2

[3] = test system: Serratia marcescens expressing IMP-1 (CL5741); format: cell-based; conditions: with imipenem 1 μg/ml; 95% inhibition of bacterial growth
Outline: as §2

[4] = test system: P. aeruginosa MB9798 (efflux+, IMP-1 plasmid); conditions: for MB9798 MITC95 P. aeruginosa uM Efflux WT: efflux + (MB9798) strain, imipenem at 2 μg/mL, in the presence of a class A, C, D serine β-lactamase inhibitor closely related to relebactam; for Efflux ratio: fold difference between efflux+ (MB9798) and efflux− (MB9799) strains
Outline: (§3)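 PAO1-derived isogenic pair (oprD+, inducible AmpC), efflux+ MB5919 or efflux− MB5890 parent, carrying an electroporated IMP-1 plasmid from a clinical isolate. Microbroth MIC with fixed imipenem and/or ceftazidime (usually CLSI breakpoint) plus fixed class A/C inhibitor; MBL inhibitor serially titrated, concentration restoring susceptibility recorded.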

[5] = test system: P. aeruginosa MB9799 (efflux-, IMP-1 plasmid); format: cell-based, Pseudomonas aeruginosa; conditions: efflux − (MB9799) strain; imipenem at 2 μg/mL; in the presence of a class A, C, D serine β-lactamase inhibitor closely related to relebactam
Outline: as §3

[6] = CCF2-FA fluorescence assay, read-out: VIM2 IC50

NDM-1, sequence (C7C422 whole entry, looked up, species assumed): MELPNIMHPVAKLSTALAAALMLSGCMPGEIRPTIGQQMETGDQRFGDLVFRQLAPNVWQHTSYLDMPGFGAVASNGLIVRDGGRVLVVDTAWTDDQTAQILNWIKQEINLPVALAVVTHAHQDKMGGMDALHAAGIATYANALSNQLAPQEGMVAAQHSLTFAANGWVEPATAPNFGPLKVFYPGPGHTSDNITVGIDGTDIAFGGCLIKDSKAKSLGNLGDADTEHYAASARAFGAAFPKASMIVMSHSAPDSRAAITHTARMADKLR
IMP-1, sequence (P52699 whole entry, looked up, species assumed): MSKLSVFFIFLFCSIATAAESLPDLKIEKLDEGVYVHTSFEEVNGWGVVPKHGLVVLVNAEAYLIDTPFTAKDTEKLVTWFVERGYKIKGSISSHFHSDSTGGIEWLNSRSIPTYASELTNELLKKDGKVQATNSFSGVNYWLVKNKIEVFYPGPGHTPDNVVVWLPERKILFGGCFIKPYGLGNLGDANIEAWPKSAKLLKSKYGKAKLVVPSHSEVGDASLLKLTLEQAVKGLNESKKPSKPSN

SMILES	IC50 (NDM-1) [nM]	IC50 (IMP-1) [nM]	IC50 (VIM-1) [nM]	IC50 (VIM-2; [6]) [nM]	CLB30016 E. coli MITC95 NDM [1] [µM]	IHMA599644 K. pneumoniae MITC95 VIM [2] [µM]	CL5741 S. marcescens MITC95 IMP [3] [µM]	MB9798 MITC95 P. aeruginosa uM Efflux WT [4] [µM]	Efflux ratio [4]	MB9799 MITC95 P. aeruginosa uM Efflux Mutant [5] [µM]	IC50 (VIM-2; VIM2 IC50, CCF2-FA fluorescence assay) [nM]
N[C@@H]1CCN(c2ccc(S(=O)(=O)N[C@@H]3CCNC3)c(S(N)(=O)=O)c2-c2nn[nH]n2)C[C@@H]1F [Example 198, 4-((3S,4R)-4-amino-3-fluoropiperidin-1-yl)-N1-((R)-pyrrolidin-3-yl)-3-(2H-tetrazol-5-yl)benzene-1,2-disulfonamide]	1.82	5.62	0.2	11	0.39	0.39	0.20	0.78	1.00	0.78	–
NS(=O)(=O)c1c(S(=O)(=O)N[C@@H]2CCNC2)ccc(N2CCNC(CO)CC2)c1-c1nn[nH]n1 (stereo partly drawn) [Example 127, 4-(5-(hydroxymethyl)-1,4-diazepan-1-yl)-N1-((R)-pyrrolidin-3-yl)-3-(2H-tetrazol-5-yl)benzene-1,2-disulfonamide]	18.9	33.7	1.25	24.6	0.39	0.78	0.78	3.13	4.00	0.78	–
NC[C@@H](O)CNS(=O)(=O)c1ccc(N2CCC(n3ccnc3)CC2)c(-c2nnn[nH]2)c1S(N)(=O)=O [Example 174, (R)-4-(4-(1H-imidazol-1-yl)piperidin-1-yl)-N1-(3-amino-2-hydroxypropyl)-3-(2H-tetrazol-5-yl)benzene-1,2-disulfonamide]	0.69	0.36	0.07	0.22	0.78	3.13	0.78	3.13	2.00	1.56	–
NC[C@H](N)CNS(=O)(=O)c1ccc(N2CCC(CO)CC2)c(-c2nnn[nH]2)c1S(N)(=O)=O [Example 44, (S)-N1-(2,3-diaminopropyl)-4-(4-(hydroxymethyl)piperidin-1-yl)-3-(1H-tetrazol-5-yl)benzene-1,2-disulfonamide]	0.36	0.56	0.06	0.63	3.13	6.25	3.13	3.13	2.00	1.56	–
CC1CN(c2ccc(S(=O)(=O)NC[C@H](O)CN)c(S(N)(=O)=O)c2-c2nn[nH]n2)CCN1CCO.O=C(O)C(F)(F)F.O=C(O)C(F)(F)F (stereo partly drawn) [Example 176, N1-((R)-3-amino-2-hydroxypropyl)-4-(4-(2-hydroxyethyl)-3-methylpiperazin-1-yl)-3-(2H-tetrazol-5-yl)benzene-1,2-disulfonamide bis(2,2,2-trifluoroacetate) salt]	2.51	5.1	2.76	11.7	0.39	1.56	0.39	3.13	2.00	1.56	–
NCC1CCN(c2ccc(S(=O)(=O)NC[C@@H](O)CN)c(S(N)(=O)=O)c2-c2nnn[nH]2)CC1 [Example 37, (S)-N1-(3-amino-2-hydroxypropyl)-4-(4-(aminomethyl)piperidin-1-yl)-3-(1H-tetrazol-5-yl)benzene-1,2-disulfonamide]	1.29	3.04	0.11	2.07	0.39	0.78	0.78	0.78	1.00	0.78	–
NC(=O)C1CCN(c2ccc(S(=O)(=O)N[C@@H]3CCNC3)c(S(N)(=O)=O)c2-c2nn[nH]n2)CCN1 (stereo partly drawn) [Example 165, 1-(4-(N-((R)-pyrrolidin-3-yl)sulfamoyl)-3-sulfamoyl-2-(2H-tetrazol-5-yl)phenyl)-1,4-diazepane-5-carboxamide]	1.21	2.43	0.38	2.35	0.20	1.56	0.20	1.56	2.00	0.78	–
NC[C@@H]1CCN(c2ccc(S(=O)(=O)N[C@@H]3CCNC3)c(S(N)(=O)=O)c2-c2nn[nH]n2)C[C@@H]1F (racemic) [Example 7]	0.68	3.49	0.24	4.46	0.20	0.78	0.39	0.78	2.00	0.39	–
NC[C@@H](O)CNS(=O)(=O)c1ccc(N2CCC(F)(CO)CC2)c(-c2nn[nH]n2)c1S(N)(=O)=O [Example 22, (R)-N^1-(3-amino-2-hydroxypropyl)-4-(4-fluoro-4-(hydroxymethyl)piperidin-1-yl)-3-(2H-tetrazol-5-yl)benzene-1,2-disulfonamide]	0.45	0.7	0.35	0.79	3.13	6.25	1.56	1.56	1.00	1.56	–
CC(N)C1CCN(c2ccc(S(=O)(=O)NC[C@H](O)CN)c(S(N)(=O)=O)c2-c2nnn[nH]2)CC1 (stereo partly drawn) [Example 50, N1-((R)-3-amino-2-hydroxypropyl)-4-(4-(1-aminoethyl)piper-idin-1-yl)-3-(1H-tetrazol-5-yl)benzene-1,2-disulfonamide]	4.14	2.11	0.15	4.12	0.39	0.78	0.78	0.78	2.00	0.39	–
NC1(CO)CCN(c2ccc(S(=O)(=O)N[C@@H]3CCNC3)c(S(N)(=O)=O)c2-c2nnn[nH]2)C1 (stereo partly drawn) [Example 84, 4-[3-amino-3-(hydroxymethyl)pyrrolidin-1-yl]-N1-[(3R)-pyrrolidin-3-yl]-3-(1H-tetrazol-5-yl)benzene-1,2-disulfonamide]	19.7	33	7.27	46.9	0.78	1.56	1.56	6.25	4.00	1.56	–
NC[C@@H](O)CNS(=O)(=O)c1ccc(N2CCC(C(N)CO)CC2)c(-c2nn[nH]n2)c1S(N)(=O)=O (single isomer, unassigned) [Example 180]	5.73	6.3	0.44	–	0.39	1.56	0.78	0.78	1.00	0.78	5.92
NC1CCN(c2ccc(S(=O)(=O)N[C@@H]3CCNC3)c(S(N)(=O)=O)c2-c2nnn[nH]2)CC1 [Example 73, 4-(4-aminopiperidin-1-yl)-N1-[(3R)-pyrrolidin-3-yl]-3-(1H-tetrazol-5-yl)benzene-1,2-disulfonamide]	9.84	16.6	0.31	16.1	0.78	1.56	1.56	1.56	2.00	0.78	–
